Measured values taken from PMC12111564, “Extended Family of Thiophosphoryl-Appended Pd(II) Pincer Complexes with a Deprotonated Amide Core: Synthesis and Biological Evaluation” (International Journal of Molecular Sciences, 2025).
Read-outs that look alike come from different tables or passages of the source.

Experiments:
solid cancer cells = assay: MTT cytotoxicity assay, solid cancer cells; type: cell-based, human; settings: inactive at concentrations up to
Protocol: (§1) The cytotoxic activity of the complexes obtained was screened against several human solid and hematopoietic cancer cell lines using the conventional MTT assay. To evaluate their selectivity for cancerous over non-cancerous cells, analogous tests were performed with pseudonormal human embryonic kidney (HEK293) and breast epithelial (HBL100) cell lines.
(§2) The cytotoxicity of the compounds obtained was investigated on human colorectal carcinoma (HCT116), breast cancer (MCF7), prostate adenocarcinoma (PC3), glioblastoma (U251), ovarian adenocarcinoma (Scov3), chronic myelogenous leukemia (K562 and K562/iS9), multiple plasmacytoma (AMO1), and acute lymphoblastic leukemia (H9) cell lines, as well as human embryonic kidney (HEK293) and mammary epithelial (HBL100 and HBL100/Dox) cells used as non-cancerous cell lineages. All the cell lines were obtained from American Type Culture Collection (ATCC). The tested compounds were initially dissolved in DMSO. Cisplatin was obtained from a commercial source (as an infusion concentrate in natural saline solution). The experiments were performed using the conventional MTT assay (ICN Biomedicals, Eschwege, Germany) according to the previously published procedure.

[1] = system: hematopoietic cancer cells; assay: MTT cytotoxicity assay, hematopoietic cancer cells; type: cell-based, human; settings: inactive at concentrations up to
Protocol: as §1, §2

[2] = system: human colorectal carcinoma (HCT116); assay: MTT cytotoxicity assay, HCT116; type: cell-based; settings: 48 h exposure, read-out: IC50 ± SD, HCT116
Protocol: as §1, §2

breast cancer (MCF7) [3] = assay: MTT cytotoxicity assay, MCF7; type: cell-based, human; settings: 48 h exposure, read-out: IC50 ± SD, MCF7
Protocol: as §1, §2

[4] = system: prostate adenocarcinoma (PC3); assay: MTT cytotoxicity assay, PC3; type: cell-based, human; settings: 48 h exposure, read-out: IC50 ± SD, PC3
Protocol: as §1, §2

[5] = system: human embryonic kidney (HEK293); assay: MTT cytotoxicity assay, HEK293; type: cell-based; settings: 48 h exposure, non-cancerous cells, read-out: IC50 ± SD, HEK293
Protocol: as §1, §2

[6] = system: mammary epithelial cells HBL100; assay: MTT cytotoxicity assay, HBL100; type: cell-based, human; settings: 48 h exposure, non-cancerous cells, read-out: IC50 ± SD, HBL100
Protocol: as §1, §2

[7] = system: doxorubicin-resistant mammary epithelial cells HBL100/Dox; assay: MTT cytotoxicity assay, HBL100/Dox; type: cell-based, human; settings: 48 h exposure, doxorubicin-resistant clone, read-out: IC50 ± SD, HBL100/Dox
Protocol: as §1, §2

[8] = system: chronic myelogenous leukemia (K562); assay: MTT cytotoxicity assay, K562; type: cell-based, human; settings: 48 h exposure, read-out: IC50 ± SD, K562
Protocol: as §1, §2

[9] = system: doxorubicin-resistant subline of chronic myelogenous leukemia cells (K562/iS9); assay: MTT cytotoxicity assay, K562/iS9; type: cell-based, human; settings: 48 h exposure, read-out: IC50 ± SD, K562/iS9
Protocol: as §1, §2

[10] = system: multiple plasmacytoma (AMO1); assay: MTT cytotoxicity assay, AMO1; type: cell-based, human; settings: 48 h exposure, read-out: IC50 ± SD, AMO1
Protocol: as §1, §2

[11] = system: acute lymphoblastic leukemia (H9); assay: MTT cytotoxicity assay, H9; type: cell-based, human; settings: 48 h exposure, read-out: IC50 ± SD, H9
Protocol: as §1
as §2, with “Cisplatin was obtained from a commercial source (as an infusion concentrate in natural saline solution).” left out

K562 cells = assay: Apoptosis induction, Annexin V-FITC/PI flow cytometry, K562; type: cell-based, human; settings: 10 μM, 20 h
Excerpt: (§3) To our delight, in general the biological profile of complex (R)-18 appeared to be close to that of the previously reported phenyl-substituted counterpart (compare entries 10 and 1 in Table 1 and entries 6 and 1 in Table 2), with a lower activity on HCT116 and PC3 cells but remarkably higher selectivity towards K562 cells over non-cancerous HEK293 cells. […] The total percentage of early (lower right quadrant) and late (upper right quadrant) apoptotic cells for (R)-18 on K562/iS9 subline was even higher than in the parental cells. These findings prompted us to gain further insight into the bioactivity of the Pd(II) pincer complexes of thiophosphoryl-functionalized amides from the viewpoint of their potential to overcome drug resistance.
(§4) The apoptosis-inducing ability of enantiomerically pure and racemic complexes 18 was studied on K562 and K562/iS9 cells that were cultured in a medium containing 10 μM of the tested palladocycle for 20 h. The experiments were performed following the published procedure. The analysis was carried out on a FACScan flow cytometer (Becton Dickinson, Franklin Lakes, NJ, USA) using the CellQuest software (version 3.3).

K562/iS9 cells = assay: Apoptosis induction, Annexin V-FITC/PI flow cytometry, K562/iS9; type: cell-based, human; settings: 10 μM, 20 h
Excerpt: as §3, §4

[12] = system: Bacillus subtillis (VKM B-501); assay: Agar well diffusion, B. subtillis; type: cell-based; settings: 10 µL per well, 28 °C, 24 h
Protocol: (§5) The microbial strains Bacillus subtillis (VKM B-501), Micrococcus luteus (VKM Ac-2230), and Groenewaldozyma auringiensis (VKM Y-2927) were used for antimicrobial activity tests. All strains were obtained from the All-Russian Collection of Microorganisms (VKM) at the Skryabin Institute of Biochemistry and Physiology of Microorganisms, Pushchino Scientific Center of Biological Research. B. subtilis and M. luteus were grown on the following medium (g/L): aminopeptide 60 mL; tryptone 5.0 g; yeast extract 1.0 g; soybean extract 30 mL; bacto-agar 15.0 g; final pH 7.2. G. auringiensis was grown on malt extract medium containing the following medium (g/L): malt extract 12.75; dextrin 2.75; glycerol 2.35; gelatin peptone 0.78; bacto-agar 15; final pH 5.4. The antimicrobial activity of ligand 17 and its cyclopalladated derivative 18 (both in the racemic form) was studied by the agar well diffusion method. The overnight grown culture of each strain (100 µL) was applied to the surface of the solid medium, then spread on agar plates using a glass spreader, and left for 30 min. The wells were cut in the culture plates using a sterilized glass tube (4 mm in diameter), and each compound sample was dissolved in DMSO to a final concentration of 0.25 or 2.5 mM (10 µL) and was placed in each well. After this, the plates were kept at room temperature for 3 h to improve the diffusion of the compounds and incubated at 28 °C for 24 h. DMSO (15%) was used as a negative control, while kanamycin (50 mg/mL) was used as a positive control. The antimicrobial activity was determined by measuring the inhibition zone around each well as a mean of three replicates.

[13] = system: Micrococcus luteus (VKM Ac-2230); assay: Agar well diffusion, M. luteus; type: cell-based; settings: 10 µL per well, 28 °C, 24 h
Protocol: as §5

[14] = system: Groenewaldozyma auringiensis (VKM Y-2927); assay: Agar well diffusion, G. auringiensis; type: cell-based; settings: 10 µL per well, 28 °C, 24 h
Protocol: as §5

glioblastoma (U251) = assay: MTT cytotoxicity assay, U251; type: cell-based, human
Protocol: as §1, §2

[15] = system: ovarian adenocarcinoma (Scov3); assay: MTT cytotoxicity assay, Scov3; type: cell-based, human
Protocol: as §1, §2

[16] = system: human colorectal carcinoma (HCT116); parameters: method as in PMID 37818804; settings: MTT; read-out: IC50 ± SD, HCT116; cited from earlier work
breast cancer (MCF7) [17] = system: breast cancer (MCF7); parameters: method as in PMID 37818804; settings: MTT; read-out: IC50 ± SD, MCF7; cited from earlier work
[18] = system: prostate adenocarcinoma (PC3); parameters: method as in PMID 37818804; settings: MTT; read-out: IC50 ± SD, PC3; cited from earlier work
[19] = system: human embryonic kidney (HEK293); parameters: method as in PMID 37818804; settings: MTT; read-out: IC50 ± SD, HEK293; cited from earlier work
[20] = system: mammary epithelial cells HBL100; parameters: method as in PMID 37818804; settings: MTT; read-out: IC50 ± SD, HBL100; cited from earlier work
[21] = system: doxorubicin-resistant mammary epithelial cells HBL100/Dox; settings: MTT; read-out: IC50 ± SD, HBL100/Dox; cited from earlier work
[22] = system: chronic myelogenous leukemia (K562); parameters: method as in PMID 37818804; settings: MTT; read-out: IC50 ± SD, K562; cited from earlier work
[23] = system: doxorubicin-resistant subline of chronic myelogenous leukemia cells (K562/iS9); settings: MTT; read-out: IC50 ± SD, K562/iS9; cited from earlier work
[24] = system: multiple plasmacytoma (AMO1); parameters: method as in PMID 37818804; settings: MTT; read-out: IC50 ± SD, AMO1; cited from earlier work
[25] = system: acute lymphoblastic leukemia (H9); parameters: method as in PMID 37818804; settings: MTT; read-out: IC50 ± SD, H9; cited from earlier work
[26] = Stability in DMSO solution by 31P NMR monitoring; type: physicochemical; settings: at least for several days
Excerpt: The identities and structures of both free amides 2–8 and their cyclopalladated derivatives were unambiguously confirmed based on the IR and multinuclear NMR spectroscopic data (including different 2D NMR techniques), as well as elemental analyses, which are presented in detail in Section 3 (Materials and Methods) and Figures S1–S31 in the Supporting Information (SI). The realization of metalation of the central secondary amide unit in the resulting complexes was supported by the lack of NH proton singlets in the ^1H NMR spectra, as well as the absence of amide II and amide A bands in the IR spectra. The coordination of the thiophosphoryl pendant arm was evidenced by a strong downfield shift of the phosphorus resonance (ΔδP = 8.1–17.4 ppm) and the displacement of the P=S bond stretches towards lower frequencies, which reached up to 65 cm^−1. The coordination of the additional N- or S-donor unit was indirectly indicated by considerable shifts of the signals of CH/CH3 protons or quaternary carbon nuclei located in the close proximity to the heteroatom (for example, ΔδH for the methyl substituent in the thioether group of 13a,b was more than 0.65 ppm, while a coordination shift of the proton signal, corresponding to the CH unit adjacent to the nitrogen atom of the pyridine ring of 9, composed 0.45 ppm).

P-glycoprotein (P-gp) = target: T1, P-glycoprotein (P-gp) (Homo sapiens, UniProt P08183); assay: P-gp functional activity, Rh123 efflux from K562/iS9 cells; type: cell-based; settings: 20 μM of complex, 37 °C, 30 min, flow cytometry
T1 construct: We assessed the efflux of the fluorescent dye Rhodamine 123 (Rh123) from cells with a high P-gp content—K562/iS9 cells; endogenous in cells; host or cells: K562/iS9 (doxorubicin-resistant subline of K562)
T1 sequence (P08183 whole entry): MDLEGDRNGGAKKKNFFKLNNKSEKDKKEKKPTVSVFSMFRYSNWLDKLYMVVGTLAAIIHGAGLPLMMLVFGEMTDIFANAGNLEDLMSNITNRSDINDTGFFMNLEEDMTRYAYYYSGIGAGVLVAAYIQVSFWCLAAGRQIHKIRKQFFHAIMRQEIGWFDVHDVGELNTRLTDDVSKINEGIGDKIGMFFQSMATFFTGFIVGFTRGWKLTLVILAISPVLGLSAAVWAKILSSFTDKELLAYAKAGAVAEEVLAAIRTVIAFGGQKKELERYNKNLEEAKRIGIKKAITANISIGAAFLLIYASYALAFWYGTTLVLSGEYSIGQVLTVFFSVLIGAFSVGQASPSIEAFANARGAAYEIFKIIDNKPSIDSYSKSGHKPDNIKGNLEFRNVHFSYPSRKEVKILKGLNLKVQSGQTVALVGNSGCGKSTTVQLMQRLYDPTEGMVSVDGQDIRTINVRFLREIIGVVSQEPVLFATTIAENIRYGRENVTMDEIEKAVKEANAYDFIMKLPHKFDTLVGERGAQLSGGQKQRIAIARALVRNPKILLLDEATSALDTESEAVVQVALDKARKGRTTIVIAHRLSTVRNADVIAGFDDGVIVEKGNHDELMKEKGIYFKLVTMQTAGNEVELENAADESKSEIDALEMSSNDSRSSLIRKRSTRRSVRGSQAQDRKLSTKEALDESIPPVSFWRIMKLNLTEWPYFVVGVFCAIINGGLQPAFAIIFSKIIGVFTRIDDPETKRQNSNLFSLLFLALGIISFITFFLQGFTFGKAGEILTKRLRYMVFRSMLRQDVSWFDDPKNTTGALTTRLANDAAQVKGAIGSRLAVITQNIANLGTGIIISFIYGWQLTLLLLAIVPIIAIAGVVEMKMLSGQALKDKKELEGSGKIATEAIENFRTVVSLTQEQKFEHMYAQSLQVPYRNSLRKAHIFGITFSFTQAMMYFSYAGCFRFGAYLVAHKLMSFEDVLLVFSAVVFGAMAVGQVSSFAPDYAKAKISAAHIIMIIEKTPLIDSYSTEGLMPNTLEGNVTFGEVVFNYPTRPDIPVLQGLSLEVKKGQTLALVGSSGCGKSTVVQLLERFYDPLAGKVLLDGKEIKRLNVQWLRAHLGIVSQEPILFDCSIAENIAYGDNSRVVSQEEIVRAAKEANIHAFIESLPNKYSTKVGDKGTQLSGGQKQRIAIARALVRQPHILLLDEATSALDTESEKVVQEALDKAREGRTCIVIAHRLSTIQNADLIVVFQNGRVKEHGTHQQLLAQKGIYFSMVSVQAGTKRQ
Protocol: We assessed the efflux of the fluorescent dye Rhodamine 123 (Rh123) from cells with a high P-gp content—K562/iS9 cells [31].
The functional activity of P-gp was evaluated by the method described earlier [40]. K562/iS9 cells (3 × 10^6) were incubated for 15 min in a culture medium containing 5 μg/mL of Rh123 (Sigma-Aldrich, St. Louis, MO, USA). After incubation, the cells were washed twice and divided into several fractions. […] The incubation was carried out in the full culture medium at 37 °C for 30 min. […] The cell fluorescence was evaluated using a flow cytometer (Becton Dickinson). The results were analyzed using the CellQuest software.

Compound | IC50 [2] [µM] | IC50 (breast cancer (MCF7) [3]) [µM] | IC50 [4] [µM] | IC50 [5] [µM] | IC50 [6] [µM] | IC50 [7] [µM] | IC50 [8] [µM] | IC50 [9] [µM] | IC50 [10] [µM] | IC50 [11] [µM] | IC50 (glioblastoma (U251)) [µM] | IC50 [15] [µM] | further results
N#Cc1ccccc1.N#Cc1ccccc1.[Cl][Pd][Cl] [PdCl2(NCPh)2] | – | – | – | – | – | – | – | – | – | – | – | – | concentration up to which inactive, solid cancer cells (solid cancer cells): > 60 µM; concentration up to which inactive, hematopoietic cancer cells [1]: > 40 µM
CC(C)C1[N]2C(=O)c3cccc[n+]3[Pd-2]2([Cl])[S+]=P1(c1ccccc1)c1ccccc1 (racemic) [Compound 18] | 9.2 ± 1.8 | 19.2 ± 1.3 | 11.5 ± 1.5 | 9.5 ± 1.8 | 14 ± 1.4 | 23.3 ± 2.7 | 4.8 ± 1.2 | 6.4 ± 1.7 | 3 ± 1.2 | 3.4 ± 0.1 | – | – | percentage of necrotic cells (upper left), K562 (K562 cells): 0.2%; percentage of necrotic cells (upper left), K562/iS9 (K562/iS9 cells): 0.4%; Inhibition Zone, B. subtillis (VKM B-501) ([12]; 0.25 mM): 0.5 ± 0.2 mm; Inhibition Zone, B. subtillis (VKM B-501) ([12]; 2.50 mM): 0.5 ± 0.2 mm; Inhibition Zone, M. luteus (VKM Ac-2230) ([13]; 0.25 mM): 0.5 ± 0.3 mm; Inhibition Zone, M. luteus (VKM Ac-2230) ([13]; 2.50 mM): 4.0 ± 0.5 mm; Inhibition Zone, G. auringiensis (VKM Y-2927) ([14]; 0.25 mM): 0 mm; Inhibition Zone, G. auringiensis (VKM Y-2927) ([14]; 2.50 mM): 0 mm
O=C1c2cccc[n+]2[Pd-2]2([Cl])[S+]=P(c3ccccc3)(c3ccccc3)C(c3ccccc3)[N]12 (racemic) [Ia] | – | – | – | – | – | – | – | – | – | – | 34 ± 4 | 30 ± 2 | IC50 [16]: 3 ± 0.5 µM; IC50 (breast cancer (MCF7) [17]): 10 ± 2.5 µM; IC50 [18]: 4 ± 0.4 µM; IC50 [19]: 6.2 ± 0.5 µM; IC50 [20]: 16 ± 0.5 µM; IC50 [21]: 34 ± 4 µM; IC50 [22]: 7.4 ± 0.4 µM; IC50 [23]: 5.8 ± 1.2 µM; IC50 [24]: 2.4 ± 0.3 µM; IC50 [25]: 3.2 ± 0.4 µM
O=C1c2cc(Cl)cc[n+]2[Pd-2]2([Cl])[S+]=P(c3ccccc3)(c3ccccc3)C(c3ccccc3)[N]12 (racemic) [Compound 9, [κ^3-S,N,N-(L)Pd(II)Cl] complex] | 7 ± 0.5 | 6.2 ± 2 | 8 ± 0.5 | 10 ± 4 | 6.5 ± 1.5 | 10.5 ± 1.5 | 8 ± 1.5 | 6.2 ± 1.8 | 2.4 ± 0.6 | 3.2 ± 0.4 | 9 ± 1 | 8 ± 0.7 | stability in solution (DMSO) [26]: stable in solution
COc1cc2c(cc1OC)CN(CCc1ccc(NC(=O)c3cccc4c(=O)c5cccc(OC)c5[nH]c34)cc1)CC2 [elacridar] | – | – | – | – | – | – | – | – | – | – | – | – | effect on Rh123 efflux / interaction with P-gp (P-glycoprotein (P-gp)): almost completely blocks the efflux of Rh123
